Measurements: patent publication US7799829B2, “Acyloxyalkyl carbamate prodrugs of α-amino acids, methods of synthesis and use” (XenoPort, Inc., priority 2006, dated 2010)

How the values were obtained:
[1] = Bioavailability of α-amino acid following intracolonic administration of prodrugs in rats (intravenous α-amino acid as reference); assay type: in vivo; details: for colonic bioavailability of 1-aminocyclopropanecarboxylic acid: intracolonic administration of prodrug, 1-aminocyclopropanecarboxylic acid released post absorption
Method: Rats are obtained commercially and were pre-cannulated in the both the ascending colon and the jugular vein. Animals were conscious at the time of the experiment. All animals were fasted overnight and until 4 hours after dosing of an α-amino acid prodrug. An α-amino acid or the corresponding prodrug was administered as a solution (in water) directly into the colon via the cannula at a dose equivalent to about 75 mg or other appropriate dose of an α-amino acid per kg body weight. Blood samples (0.3 mL) were obtained from the jugular cannula at intervals over 8 hours and were quenched immediately by addition of sodium metabisulfite to prevent oxidation of the α-amino acid. Blood was then further quenched with methanol/perchloric acid to prevent hydrolysis of the prodrug. Blood samples were analyzed as described.
300 μL of methanol was added to 1.5 mL tubes. Rat or monkey blood (100 μL) was collected at different times into the tubes and vortexed to mix. 90 μL of blood was quenched with 300 μL methanol. 10 μL of a standard stock solution containing an α-amino acid (0.04, 0.2, 1, 5, 25, and 100 μg/mL) and 20 μL of p-chlorophenylalanine eas added to 90 μL of blood to make up a final calibration standard (0.004, 0.02, 0.1, 0.5, 2.5, and 10 μg/mL). Samples were vortexed and centrifuged at 3400 rpm for 20 min. The supernatant was analyzed by LC/MS/MS.
An API 4000 LC/MS/MS spectrometer equipped with Agilent 1100 binary pumps and a CTC HTS-PAL autosampler and an Agilent Zorbax Eclipse XBD-C8, 4.6×150 mm, 3.5 μM column was used for the analysis. The mobile phase was 0.02% heptafluorobutyric acid in water (A) and 0.02% heptafluorobutyric acid in acetonitrile (B). The flow rate was 1.0 mL/min. The gradient condition was: 5% B for 2 min, then to 10% B for 1 min. Then the mobile phase was returned to 5% B for 1.1 min. A TurboIonSpray source was used in the API 4000. The analysis was done in either negative ion mode or positive ion mode as appropriate and the MRM transition for each analyte was optimized using a standard solution. 20 μL of the samples were injected. Non-compartmental analysis was performed using WinNonlin software (v.3.1 Professional Version, Pharsight Corporation, Mountain View, Calif.) on individual animal profiles. Summary statistics on major parameter estimates was performed for Cmax (peak observed concentration following dosing), Tmax (time to maximum concentration is the time at which the peak concentration was observed), AUC(0-t) (area under the plasma concentration-time curve from time zero to last collection time, estimated using the log-linear trapezoidal method), AUC(0-∞), (area under the plasma concentration time curve from time zero to infinity, estimated using the log-linear trapezoidal method to the last collection time with extrapolation to infinity), and t1/2,z (terminal half-life).
The oral or intracolonic bioavailability (F) of an α-amino acid was determined by comparing the area under the α-amino acid concentration vs. time curve (AUC) following oral or intracolonic administration of α-amino acid or prodrug thereof with the AUC of the α-amino acid concentration vs. time curve following intravenous administration of the α-amino acid on a dose normalized basis (e.g., % Fic=AUC (following intracolonic administration of an α-amino acid prodrug)/AUC (following intravenous administration of an equivalent dose of the corresponding α-amino acid)). […] In monkeys, following, colonic administration of α-amino acid prodrug 2, the bioavailability of 1-aminocyclopropanecarboxylic acid was determined to be about 4-fold greater than after colonic administration of 1-aminocyclopropanecarboxylic acid itself (at 20 mg-eq/kg).

Structure (SMILES)	melting point	AUC(0-inf) ([1]; rat, whole blood, intravenous, dosed at 20 mg-eq/kg, used as reference for bioavailability calculations, read-out: AUCinf for the intravenously administered α-amino acid)	colonic bioavailability of 1-aminocyclopropanecarboxylic acid [1]
O=C(Cc1ccccc1)OCCOC(=O)NC1(C(=O)O)CC1	142.1 to 145.6 °C	–	–
NC1(C(=O)O)CC1 [1-aminocyclopropanecarboxylic acid, reference compound]	–	85900 ng·h/mL	–
CC(OC(=O)NC1(C(=O)O)CC1)OC(=O)C(C)C (stereo not drawn) [Compound 1, 1-(1-Isobutyryloxy-ethoxycarbonylamino)-cyclopropanecarboxylic Acid]	127 to 129.5 °C	–	–
CC(C)C(=O)OC(OC(=O)NC1(C(=O)O)CC1)C(C)C (stereo not drawn) [Compound 2, 1-(1-Isobutyryloxy-2-methyl-propoxycarbonylamino)-cyclopropanecarboxylic Acid]	127.4 to 129 °C	–	substantial
Cc1ccccc1C(=O)OCCOC(=O)NC1(C(=O)O)CC1 [Compound 3, 1-{[(2-Methylphenylcarbonyloxy)ethoxy]carbonylamino}cyclopropanecarboxylic Acid]	–	–	substantial
O=C(NC1(C(=O)O)CC1)OCCOC(=O)c1ccccc1 [Compound 4, 1-[(Phenylcarbonyloxyethoxy)carbonylamino]cyclopropanecarboxylic Acid]	173.8 to 175.8 °C	–	substantial
CC(C)CC(=O)OC(C)OC(=O)NC1(C(=O)O)CC1 (stereo not drawn) [Compound 5, 1-[1-(3-Methyl-butyryloxy)-ethoxycarbonylamino]-cyclopropanecarboxylic Acid]	116.6 to 119.1 °C	–	–
CCCC(=O)OC(C)OC(=O)NC1(C(=O)O)CC1 (stereo not drawn) [Compound 7, 1-(1-Butyryloxy-ethoxycarbonylamino)-cyclopropanecarboxylic Acid]	90.4 to 93.4 °C	–	–
CCCCC(=O)OC(C)OC(=O)NC1(C(=O)O)CC1 (stereo not drawn) [Compound 8, 1-(1-Pentanoyloxy-ethoxycarbonylamino)-cyclopropanecarboxylic Acid]	148 to 151.1 °C	–	–

Now from value to compound:

melting point	AUC(0-inf) ([1]; rat, whole blood, intravenous, dosed at 20 mg-eq/kg, used as reference for bioavailability calculations, read-out: AUCinf for the intravenously administered α-amino acid)	colonic bioavailability of 1-aminocyclopropanecarboxylic acid [1]	Structure (SMILES)
123.6 to 125.3 °C	–	–	O=C(NC1(C(=O)O)CC1)OCCOC(=O)C1CCCCC1 [Compound 10, 1-[(Cyclohexylcarbonyloxyethoxy)carbonylamino]cyclopropanecarboxylic Acid]
156 to 158.5 °C	–	substantial	CC(C)C(OC(=O)NC1(C(=O)O)CC1)OC(=O)C1CCCCC1 (stereo not drawn) [Compound 11, 1-[(1-Cyclohexylcarbonyloxy-2-methylpropoxy)carbonylamino]cyclopropanecarboxylic Acid]
–	–	substantial	CC(C)C(OC(=O)NC1(C(=O)O)CC1)OC(=O)c1ccccc1 (stereo not drawn) [Compound 12, 1-[(2-Methyl-1-phenylcarbonyloxypropoxy)carbonylamino]cyclopropanecarboxylic Acid]
112.6 to 113.2 °C	–	–	CCCCCCC(=O)OCCOC(=O)NC1(C(=O)O)CC1 [Compound 13, 1-[(Heptanoyloxyethoxy)carbonylamino]cyclopropanecarboxylic Acid]
171.8 to 173.6 °C	–	–	COc1ccc(C(=O)OCCOC(=O)NC2(C(=O)O)CC2)cc1OC [Compound 14, 1-{[(3,4-Dimethoxyphenylcarbonyloxy)ethoxy]carbonylamino}cyclopropanecarboxylic Acid]
169.3 to 172.2 °C	–	substantial	O=C(/C=C/c1ccccc1)OCCOC(=O)NC1(C(=O)O)CC1 [Compound 16, 1-{[((2E)-3-Phenylprop-2-enoyloxy)ethoxy]carbonylamino}cyclopropanecarboxylic Acid]
132.9 to 134.4 °C	–	–	O=C(CCc1ccccc1)OCCOC(=O)NC1(C(=O)O)CC1 [Compound 17, 1-{[(3-Phenylpropanoyloxy)ethoxy]carbonylamino}cyclopropanecarboxylic Acid]
147.8 to 150.2 °C	–	substantial	CC(C)C(OC(=O)/C=C/c1ccccc1)OC(=O)NC1(C(=O)O)CC1 (stereo not drawn) [Compound 18, 1-{[1-((2E)-3-Phenylprop-2-enoyloxy)-2-methylpropoxy]carbonylamino}cyclopropanecarboxylic Acid]
177.7 to 182.5 °C	–	–	Cc1ccc(C(=O)OCCOC(=O)NC2(C(=O)O)CC2)cc1 [Compound 21, 1-{[(4-Methylphenylcarbonyloxy)ethoxy]carbonylamino}cyclopropanecarboxylic Acid]
–	–	substantial	CC(C)C(=O)OC(OC(=O)NC1(C(=O)[O-])CC1)C(C)C.[Na+] (stereo not drawn) [Compound 23, 1-{[2-Methyl-1-(2-methylpropanoyloxy)propoxy]carbonylamino}Sodium Cyclopropanoate]
